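Step 1: Grow cells in 96-well plates. Step 2: Expose to compound for 48 hours at 5 concentrations. Step 3: Interpolate endpoints linearly; if unreached, use highest concentration. Abbreviation: GI50, concentration required for 50% inhibition of growth.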 Activity calls are given as the source filed them. No stated cut-off is given here; in the data, active = GI50 up to about 1.1 µM and inactive = higher.
Columns and labels:
Test in all cases: NCI tumour cell line growth inhibition, 48 h
[1] = tested on: OVCAR-5
[2] = tested on: NCI-H23
[3] = tested on: SK-MEL-28
[4] = tested on: UO-31
[5] = tested on: T47D
[6] = tested on: A498
[7] = tested on: MCF7
[8] = tested on: U-251
[9] = tested on: HT-29
[10] = tested on: DU-145
[11] = tested on: NCI-H226
[12] = tested on: SW-620
[13] = tested on: SF-539
[14] = tested on: Malme-3M
[15] = tested on: OVCAR-8
[16] = tested on: 786-0
[17] = tested on: PC-3
[18] = tested on: HOP-62
[19] = tested on: LOX IMVI
[20] = tested on: CCRF-CEM

Row | Compound | GI50 [1] | GI50 [2] | GI50 [3] | GI50 [4] | GI50 [5] | GI50 [6] | GI50 [7] | GI50 [8] | GI50 [9] | GI50 [10] | GI50 [11] | GI50 [12] | GI50 [13] | GI50 [14] | GI50 [15] | GI50 [16] | GI50 [17] | GI50 [18] | GI50 [19] | GI50 [20]
1 | CCOP(=O)(OCC)c1ccc(=O)[nH]c1-c1cccs1 | > 100 µM (inactive) | > 100 µM (inactive) | > 100 µM (inactive) | > 100 µM (inactive) | > 100 µM (inactive) | > 100 µM (inactive) | > 100 µM (inactive) | > 100 µM (inactive) | > 100 µM (inactive) | > 100 µM (inactive) | > 100 µM (inactive) | > 100 µM (inactive) | > 100 µM (inactive) | > 100 µM (inactive) | > 100 µM (inactive) | > 100 µM (inactive) | > 100 µM (inactive) | > 100 µM (inactive) |  | 
2 | CC(=O)Oc1ccc2cc(Oc3ccccc3)c(=O)oc2c1 | > 100 µM (inactive) | > 100 µM (inactive) | > 100 µM (inactive) | 61 µM (inactive) | 36.1 µM (inactive) | 67 µM (inactive) | > 100 µM (inactive) | 69.7 µM (inactive) | > 100 µM (inactive) | > 100 µM (inactive) | > 100 µM (inactive) | > 100 µM (inactive) | > 100 µM (inactive) | > 100 µM (inactive) | 80.9 µM (inactive) | > 100 µM (inactive) | > 100 µM (inactive) | 89.1 µM (inactive) | 58.2 µM (inactive) | 
3 | CCc1ccc2c(c1)/C(=C1/Nc3ccccc3/C1=N/O)C(=O)N2 | 18.6 µM (inactive) | 5.18 µM (inactive) | 12.9 µM (inactive) | 4.12 µM (inactive) | 6.28 µM (inactive) | 4.03 µM (inactive) | 1.66 µM (inactive) | 9.31 µM (inactive) | 4.71 µM (inactive) | 6.49 µM (inactive) | 12 µM (inactive) | 4.53 µM (inactive) |  | 3.72 µM (inactive) | 6.55 µM (inactive) | 6.61 µM (inactive) | 6.85 µM (inactive) | 10.6 µM (inactive) | 6.76 µM (inactive) | 3.21 µM (inactive)
4 | CN(C)C1(N(C)C)Oc2c(c(=O)n(C)c(=O)n2C)C(c2ccc(Br)cc2)C1(F)F (centres undefined) | > 100 µM (inactive) | > 100 µM (inactive) | > 100 µM (inactive) | > 100 µM (inactive) | > 100 µM (inactive) | > 100 µM (inactive) | > 100 µM (inactive) | > 100 µM (inactive) |  | > 100 µM (inactive) | > 100 µM (inactive) | > 100 µM (inactive) |  |  |  | > 100 µM (inactive) | > 100 µM (inactive) | > 100 µM (inactive) | > 100 µM (inactive) | > 100 µM (inactive)
5 | Cn1nc2ccc3nccc(N4CCN(CCO)CC4)c3c2n1 | > 100 µM (inactive) | > 100 µM (inactive) | > 100 µM (inactive) | > 100 µM (inactive) | 42.3 µM (inactive) | > 100 µM (inactive) | > 100 µM (inactive) | > 100 µM (inactive) | > 100 µM (inactive) | > 100 µM (inactive) | > 100 µM (inactive) | 59.4 µM (inactive) |  | > 100 µM (inactive) | > 100 µM (inactive) | > 100 µM (inactive) | 19.3 µM (inactive) | > 100 µM (inactive) | 0.371 µM (active) | 21.3 µM (inactive)
6 | Cc1ccc(/C=N\NC(=O)c2ccncc2)s1 | > 100 µM (inactive) | > 100 µM (inactive) | > 100 µM (inactive) | > 100 µM (inactive) | > 100 µM (inactive) | > 100 µM (inactive) | > 100 µM (inactive) | > 100 µM (inactive) | > 100 µM (inactive) | > 100 µM (inactive) | > 100 µM (inactive) | > 100 µM (inactive) | > 100 µM (inactive) | > 100 µM (inactive) | > 100 µM (inactive) | > 100 µM (inactive) | > 100 µM (inactive) | > 100 µM (inactive) |  | > 100 µM (inactive)
7 | CC1OC(n2cc(F)c(=O)[nH]c2=O)C(O[Si](C)(C)C(C)(C)C)C1O[Si](C)(C)C(C)(C)C (centres undefined) | 15.2 µM (inactive) | 10.6 µM (inactive) |  | 12.8 µM (inactive) | 10.2 µM (inactive) | 14.2 µM (inactive) | 6.76 µM (inactive) | 13.9 µM (inactive) | 10.8 µM (inactive) | 13.6 µM (inactive) | 16.2 µM (inactive) | 15 µM (inactive) | 12.6 µM (inactive) | 14.9 µM (inactive) | 14.7 µM (inactive) | 14.6 µM (inactive) | 11 µM (inactive) | 21.5 µM (inactive) | 16.2 µM (inactive) | 16.6 µM (inactive)
8 | Cc1cc(C#N)c[n+](C)c1 | > 100 µM (inactive) | > 100 µM (inactive) | > 100 µM (inactive) | > 100 µM (inactive) | > 100 µM (inactive) | > 100 µM (inactive) | > 100 µM (inactive) | > 100 µM (inactive) | > 100 µM (inactive) | > 100 µM (inactive) | > 100 µM (inactive) | > 100 µM (inactive) | > 100 µM (inactive) | > 100 µM (inactive) | > 100 µM (inactive) | > 100 µM (inactive) | > 100 µM (inactive) | > 100 µM (inactive) |  | > 100 µM (inactive)
9 | CN(CCNC(=O)c1n[nH]c2c1Cc1ccccc1-2)CCNC(=O)c1n[nH]c2c1Cc1ccccc1-2 | 18.6 µM (inactive) | 17.2 µM (inactive) | 18.3 µM (inactive) | 19.4 µM (inactive) | 18.8 µM (inactive) | 18.6 µM (inactive) | 19.3 µM (inactive) | 19.3 µM (inactive) | 17.7 µM (inactive) | 15.5 µM (inactive) | 19.1 µM (inactive) | 22.1 µM (inactive) |  | 19.2 µM (inactive) | 20.9 µM (inactive) | 16 µM (inactive) | 17.8 µM (inactive) | 14.8 µM (inactive) | 18.9 µM (inactive) | 18.1 µM (inactive)
10 | C1=C[C@]2(CCC13OCCO3)COc1ccccc12 | 30.9 µM (inactive) | 26.5 µM (inactive) | 49.3 µM (inactive) | 35.3 µM (inactive) | 47 µM (inactive) | > 100 µM (inactive) | 33.3 µM (inactive) | 48.8 µM (inactive) | 28.5 µM (inactive) | 32.3 µM (inactive) | 31.9 µM (inactive) | 54.8 µM (inactive) |  |  | 32.4 µM (inactive) | 54.3 µM (inactive) | 35.8 µM (inactive) | 41.2 µM (inactive) | 21.5 µM (inactive) | 33.3 µM (inactive)
11 | COc1cccc(/N=N/C(=N\NC(=O)c2ccc(C)cc2)c2ccc(N(CCC#N)CCC#N)cc2C)c1 | > 100 µM (inactive) | > 100 µM (inactive) | > 100 µM (inactive) | 59.8 µM (inactive) | 41.1 µM (inactive) | 44.3 µM (inactive) | 32.1 µM (inactive) | > 100 µM (inactive) | > 100 µM (inactive) | > 100 µM (inactive) | > 100 µM (inactive) | > 100 µM (inactive) | > 100 µM (inactive) | > 100 µM (inactive) | 35.1 µM (inactive) | > 100 µM (inactive) | 64.6 µM (inactive) | 72.8 µM (inactive) | > 100 µM (inactive) | 
12 | C=C1CC(C)(c2cccc(Nc3nc4ccccc4c4occc34)c2)OC1=O (centres undefined) | 14.3 µM (inactive) |  | 13.9 µM (inactive) | 1.89 µM (inactive) | 3.1 µM (inactive) | 17.7 µM (inactive) | 3.71 µM (inactive) | 10 µM (inactive) | 4.99 µM (inactive) | 5.6 µM (inactive) | 1.5 µM (inactive) |  | 1.69 µM (inactive) | 17.6 µM (inactive) | 6.08 µM (inactive) | 1.67 µM (inactive) | 5.52 µM (inactive) | 12.2 µM (inactive) | 1.99 µM (inactive) | 2.07 µM (inactive)
13 | CC1=NN=C(N)N/C1=C\C(Sc1ccc(Cl)cc1)c1ccc(Cl)cc1Cl (centres undefined) | 15.9 µM (inactive) | 13.1 µM (inactive) | 21.8 µM (inactive) | 11.2 µM (inactive) | 14.2 µM (inactive) | 19.2 µM (inactive) | 3.78 µM (inactive) | 14.2 µM (inactive) | 3.59 µM (inactive) | 19.3 µM (inactive) | 15.1 µM (inactive) | 17.2 µM (inactive) |  | 13.4 µM (inactive) | 13.5 µM (inactive) | 18.5 µM (inactive) | 11.6 µM (inactive) | 23.8 µM (inactive) | 14.3 µM (inactive) | 2.33 µM (inactive)
14 | CC(C)C1=CC23CCC4C(C)(C(=O)O)CCCC4(C)C2CC1C1C(=O)N(c2cccc(N4C(=O)C5C6CC7C8(C)CCCC(C)(C(=O)O)C8CCC7(C=C6C(C)C)C5C4=O)c2)C(=O)C13 (centres undefined) | 7.74 µM (inactive) | 3.4 µM (inactive) | 9.35 µM (inactive) | 14.8 µM (inactive) | 16.8 µM (inactive) | 13.4 µM (inactive) | 4.38 µM (inactive) | 3.24 µM (inactive) | 3.84 µM (inactive) | 10.8 µM (inactive) | 16.6 µM (inactive) | 16.3 µM (inactive) | 9.08 µM (inactive) | 17 µM (inactive) | 8.61 µM (inactive) | 32 µM (inactive) | 4.66 µM (inactive) | 12 µM (inactive) |  | 6.31 µM (inactive)
15 | CC(C)(Sc1cc(C(C)(C)C)c(O)c(C(C)(C)C)c1)Sc1cc(C(C)(C)C)c(O)c(C(C)(C)C)c1 [PROBUCOL] | > 100 µM (inactive) | > 100 µM (inactive) | > 100 µM (inactive) | > 100 µM (inactive) | > 100 µM (inactive) | > 100 µM (inactive) | > 100 µM (inactive) | > 100 µM (inactive) | > 100 µM (inactive) | > 100 µM (inactive) |  | > 100 µM (inactive) | > 100 µM (inactive) | > 100 µM (inactive) | > 100 µM (inactive) | > 100 µM (inactive) | > 100 µM (inactive) | > 100 µM (inactive) | > 100 µM (inactive) | > 100 µM (inactive)
